Reference: patent US8349846B2, “Fused pyrimidine derivatives as TRPV3 modulators” (Glenmark Pharmaceuticals, S.A., priority 2008, dated 2013)

Target: T1, Human TRPV3 (Homo sapiens, UniProt Q8NET8)
T1 construct: expressed in transfected cells; host or cells: CHO cells (selected with G-418)
T1 sequence (Q8NET8 1-790): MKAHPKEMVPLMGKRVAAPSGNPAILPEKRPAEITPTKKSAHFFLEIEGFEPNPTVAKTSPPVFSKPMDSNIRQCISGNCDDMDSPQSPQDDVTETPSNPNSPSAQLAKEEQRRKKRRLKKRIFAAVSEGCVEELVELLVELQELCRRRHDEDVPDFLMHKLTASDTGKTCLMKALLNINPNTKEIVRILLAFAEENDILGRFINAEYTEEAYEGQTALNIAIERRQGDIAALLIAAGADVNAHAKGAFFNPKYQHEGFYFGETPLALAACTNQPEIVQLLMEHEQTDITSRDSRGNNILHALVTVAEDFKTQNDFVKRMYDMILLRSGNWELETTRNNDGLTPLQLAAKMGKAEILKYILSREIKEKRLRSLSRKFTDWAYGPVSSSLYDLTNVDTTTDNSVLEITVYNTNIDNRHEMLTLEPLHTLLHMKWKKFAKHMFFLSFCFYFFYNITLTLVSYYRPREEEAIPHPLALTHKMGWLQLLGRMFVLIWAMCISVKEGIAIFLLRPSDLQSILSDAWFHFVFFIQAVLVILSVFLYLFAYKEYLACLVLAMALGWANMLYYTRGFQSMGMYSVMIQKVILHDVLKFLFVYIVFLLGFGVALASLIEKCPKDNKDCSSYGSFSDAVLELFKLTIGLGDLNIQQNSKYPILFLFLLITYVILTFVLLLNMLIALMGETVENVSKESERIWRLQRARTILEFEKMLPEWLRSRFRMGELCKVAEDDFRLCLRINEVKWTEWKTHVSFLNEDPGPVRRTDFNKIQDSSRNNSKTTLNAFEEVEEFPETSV
Assay: Screening for TRPV3 antagonist using the 45Calcium uptake assay (inhibition of 2-APB induced cellular uptake of radioactive calcium)
Format: cell-based
Conditions: Human TRPV3 expressing CHO cells, 2-APB 500 μM; for inhibition at 1 µM / inhibition at 10 µM: CHO; for inhibition at 1 µM: read-out: Percentage inhibition at 1.0 μM; for inhibition at 10 µM: read-out: Percentage inhibition at 10.0 μM
Description: The illustrative examples of the present invention are screened for TRPV3 activity according to a modified procedure described in Tóth, A., Kedei, N., Wang, Y. and Blumberg, P. M. Life Sciences (2003), 73, 487-498. The screening of the compounds can be carried out by other methods and procedures known to a person skilled in the art. Such screening methods may be found in (a) Hu, H.-Z. et al. J. Biol. Chem. (2004), 279, 35741-35747; (b) Smith, G. D. et al. Nature (2002), 418, 186-190; (c) Peier, A. M. et al. Science (2002), 296, 2046-2049.
Screening for TRPV3 Antagonist Using the ^45Calcium Uptake Assay:
The inhibition of TRPV3 receptor activation was followed as inhibition of 2-aminoethxydiphenylborate (2-APB) induced cellular uptake of radioactive calcium. Test compounds were dissolved in dimethyl sulfoxide (DMSO) to prepare 20 mM stock solution and then diluted using plain medium with DMEM/F-12 containing 1.8 mM CaCl2 to get desired concentration. Final concentration of DMSO in the reaction was 0.5% (v/v). Human TRPV3 expressing CHO cells were grown in DMEM/F-12 medium with 10% FBS, 1% penicillin-streptomycin solution, 400 μg/ml of G-418. Cells were seeded 24 h prior to the assay in 96 well plates so as to get ˜50,000 cells per well on the day of experiment. Cells were treated with test compounds for 10 minutes followed by addition of 2-APB at a final concentration of 500 μM and 5 μCi/ml ^45Ca^+2 for 4 minutes. Cells were washed and lysed using buffer containing 1% Triton X-100, 0.1% deoxycholate and 0.1% SDS. Radioactivity in the lysate was measured in Packardt Top count after addition of liquid scintillant. Concentration response curves were plotted as a % of maximal response obtained in the absence of test antagonist. IC50 value was calculated from concentration response curve by nonlinear regression analysis using GraphPad PRISM software.
Percentage inhibition at concentrations of 1.0 μM and 10.0 μM are given in the table along with IC50 (nM) values for selected examples.

inhibition at 1 µM (1.0 μM test compound) | inhibition at 10 µM (10.0 μM test compound) | IC50 | Percentage inhibition at 1.0 μM (1.0 μM test compound) | Percentage inhibition at 10.0 μM (10.0 μM test compound) | Compound
54.2% | 77.6% | 1000 to 2500 nM | – | – | COc1cccc(/C=C/c2nc3ccccn3c(=O)c2-c2cccc(OC(C)C)c2)c1OC1CCCC1 [Example 27, 3-(3-Isopropoxyphenyl)-2-[(E)-2-(2-cyclopentyloxy-3-methoxy)phenylvinyl]-4H-pyrido-[1,2-a]pyrimidin-4-one]
– | – | < 500 nM | 83.5% | 94.7% | COc1cccc(/C=C/c2nc3ccccn3c(=O)c2-c2ccc(C#N)cc2)c1OC1CCCC1 [Example 28, 4-{2-[(E)-2-(2-Cyclopentyloxy-3-methoxyphenyl)vinyl]-4-oxo-4H-pyrido[1,2-a]-pyrimidin-3-yl}benzonitrile]
0% | 0.2% | – | – | – | COc1cccc(/C=C/c2nc3ccccn3c(=O)c2-c2ccc(C(=O)O)cc2)c1OC1CCCC1 [Example 29, 4-{4-Oxo-2-[(E)-2-(2-cyclopentyloxy-3-methoxy)phenylvinyl]-4H-pyrido[1,2-a]pyrimidin-3-yl}benzoic acid]
52% | 76.4% | – | – | – | COc1cccc(/C=C/c2nc3ccccn3c(=O)c2-c2ccc([N+](=O)[O-])cc2)c1OC1CCCC1 [Example 30, 2-{(E)-2-[(2-Cyclopentyloxy)-3-methoxyphenyl]vinyl}-3-(4-nitro)phenyl-4H-pyrido[1,2-a]pyrimidin-4-one]
50.4% | 96.2% | – | – | – | COc1cccc(/C=C/c2nc3ccccn3c(=O)c2-c2cccc(NC(C)=O)c2)c1OC1CCCC1 [Example 31, N-(3-{2-[(E)-2-(2-Cyclopentyloxy-3-methoxy)phenylvinyl]-4-oxo-4H-pyrido[1,2-a]pyrimidin-3-yl}phenyl)acetamide]
34.2% | 89.6% | – | – | – | COc1cccc(/C=C/c2nc3ccccn3c(=O)c2-c2ccc(NC(C)=O)cc2)c1OC1CCCC1 [Example 32, N-(4-{2-[(E)-2-(2-Cyclopentyloxy-3-methoxy)phenylvinyl]-4-Oxo-4H-pyrido[1,2-a]pyrimidin-3-yl}phenyl)acetamide]
78% | 94.3% | < 500 nM | – | – | COc1cccc(/C=C/c2nc3ccccn3c(=O)c2-c2ccc(C(C)=O)cc2)c1OC1CCCC1 [Example 33, 3-(4-Acetylphenyl)-2-[(E)-2-(2-cyclopentyloxy-3-methoxy)phenylvinyl]-4H-pyrido[1,2-a]pyrimidin-4-one]
36.8% | 51.3% | – | – | – | COc1cccc(/C=C/c2nc3ccccn3c(=O)c2-c2ccc(SC)cc2)c1OC1CCCC1 [Example 34, 2-{(E)-2-[(2-Cyclopentyloxy-3-methoxy)phenyl]vinyl}-3-(4-thiomethyl)phenyl-4H-pyrido[1,2-a]pyrimidin-4-one]
18.4% | 63.3% | – | – | – | COc1cccc(/C=C/c2nc3ccccn3c(=O)c2-c2ccncc2)c1OC1CCCC1 [Example 35, 2-{(E)-2-[2-(Cyclopentyloxy)-3-methoxyphenyl]vinyl}-3-pyridin-4-yl-4H-pyrido[1,2-a]-pyrimidin-4-one]
42.2% | 82.4% | 500 to 1000 nM | – | – | COc1cccc(/C=C/c2nc3ccccn3c(=O)c2-c2ccc(F)nc2)c1OC1CCCC1 [Example 36, 2-{(E)-2-[2-(Cyclopentyloxy-3-methoxy)phenyl]vinyl}-3-(6-fluoro)pyridin-3-yl-4H-pyrido[1,2-a]pyrimidin-4-one]
70.1% | 91.4% | – | – | – | COc1cccc(/C=C/c2nc3ccccn3c(=O)c2-c2ccc3c(c2)OCO3)c1OC1CCCC1 [Example 37, 3-(1,3-Benzodioxol-5-yl)-2-[(E)-2-(2-cyclopentyloxy-3-methoxy)phenylvinyl]-4H-pyrido[1,2-a]pyrimidin-4-one]
55.5% | 83.8% | < 500 nM | – | – | COc1cccc(/C=C/c2nc3ccccn3c(=O)c2-c2ccc3c(c2)OCCO3)c1OC1CCCC1 [Example 38, 2-[(E)-2-(2-Cyclopentyloxy-3-methoxyphenyl)vinyl]-3-(2,3-dihydro-1,4-benzodioxin-6-yl)-4H-pyrido[1,2-a]pyrimidin-4-one]
84.6% | 96.1% | < 500 nM | – | – | COc1cccc(/C=C/c2nc3ccccn3c(=O)c2-c2ccc3ncccc3c2)c1OC1CCCC1 [Example 39, 2-[(E)-2-(2-Cyclopentyloxy-3-methoxy)phenylvinyl]-3-quinolin-6-yl-4H-pyrido[1,2-a]pyrimidin-4-one]
23.1% | 18.7% | – | – | – | COc1cccc(/C=C/c2nc3c(C)cccn3c(=O)c2-c2ccc(C(F)(F)F)cc2)c1OC1CCCC1 [Example 40, 2-{(E)-2-[(2-Cyclopentyloxy-3-methoxy)phenyl]vinyl}-9-methyl-3-(4-trifluoromethyl)phenyl-4H-pyrido[1,2-a]pyrimidin-4-one]
54.8% | 87.6% | – | – | – | COc1cccc(/C=C/c2nc3c(OC)cccn3c(=O)c2-c2ccc(C#N)cc2)c1OC1CCCC1 [Example 41, 4-{2-[(E)-2-(2-Cyclopentyloxy-3-methoxyphenyl)vinyl]-9-methoxy-4-oxo-4H-pyrido[1,2-a]pyrimidin-3-yl}benzonitrile]
0% | 96.8% | – | – | – | COc1cccc(/C=C/c2nc3ccc(Cl)cn3c(=O)c2-c2ccc(C#N)cc2)c1OCC1CC1 [Example 42]
78.7% | 90.2% | < 500 nM | – | – | COc1cccc(/C=C/c2nc3ccc(Cl)cn3c(=O)c2-c2ccc(C#N)cc2)c1OC1CCCC1 [Example 43, 4-{7-Chloro-2-[(E)-2-(2-cyclopentyloxy-3-methoxy)phenylvinyl]-4-oxo-4H-pyrido[1,2-a]pyrimidin-3-yl}benzonitrile]
